In ChEMBL document CHEMBL3352781, “Synthesis, antileishmanial and antitrypanosomal activities of N-substituted tetrahydro-β-carbolines” (Bioorg Med Chem Lett, 2014):
Calls of active or inactive are those of the source. The rule behind the calls is not given here.

Key:
Leishmania donovani [1] = assay: Antimicrobial activity against promastigote stage of Leishmania donovani after 72 hrs by Alamar Blue assay; format: functional, organism-based
Leishmania donovani [2] = assay: Antimicrobial activity against axenic amastigote stage of Leishmania donovani after 72 hrs by Alamar Blue assay; format: functional, organism-based
Leishmania donovani [3] = assay: Antimicrobial activity against promastigote stage of Leishmania donovani infected in human THP1 cells after 72 hrs by Alamar Blue assay; format: functional, organism-based
Trypanosoma brucei = assay: Antimicrobial activity against trypamastigote stage of Trypanosoma brucei after 72 hrs by Alamar Blue assay; format: functional, organism-based
THP-1 = assay: Cytotoxicity against human THP1 cells up to 10 ug/ml after 48 hrs by neutral red assay; format: cell-based; settings: thp-1, 48 h
Vero = assay: Cytotoxicity against African green monkey Vero cells up to 25 ug/ml after 48 hrs by neutral red assay; format: cell-based; settings: chlorocebus sabaeus
HepG2 [4] = assay: Cytotoxicity against human HepG2 cells up to 25 ug/ml after 48 hrs by neutral red assay; format: cell-based; settings: hepg2, 48 h
LLC-PK1 = assay: Cytotoxicity against pig LLC-PK1 cells up to 25 ug/ml after 48 hrs by neutral red assay; format: cell-based, Sus scrofa; settings: llc-pk1, 48 h
Trypanosoma cruzi = assay: Antimicrobial activity against epimastigote stage of Trypanosoma cruzi Y; format: functional, organism-based
HepG2 [5] = assay: Cytotoxicity against human HepG2 cells after 48 hrs by neutral red assay; format: cell-based; settings: HepG2, 48 h
Leishmania infantum [6] = assay: Antimicrobial activity against amastigote stage of Leishmania infantum; format: functional, organism-based
Leishmania infantum [7] = assay: Antimicrobial activity against promastigote stage of Leishmania infantum; format: functional, organism-based
[8] = Leishmania donovani, 72 h, read-out: IC50
[9] = Leishmania donovani, THP-1, 72 h
[10] = Leishmania donovani, THP-1, 72 h, read-out: IC50
[11] = Trypanosoma brucei, 72 h, read-out: IC50

Row | Compound | IC50 (Leishmania donovani [1]; [8]) [µM] | IC50 (Leishmania donovani [2]; [8]) [µM] | IC90 (Leishmania donovani [3]; THP-1) | IC50 (Leishmania donovani [3]; thp-1) | IC50 (Trypanosoma brucei) | IC90 (Trypanosoma brucei) | Activity (THP-1) | Activity (Vero) | Activity (HepG2 [4]) | Activity (LLC-PK1) | IC50 (Trypanosoma brucei; [11]) [µM] | IC50 (Leishmania donovani [2]) | IC90 (Leishmania donovani [2]) | other results
1 | O=C(c1cc2ccccc2o1)N1CCc2c([nH]c3ccccc23)C1 | 49.5 | 116 | inactive | Not Active | Not Active | inactive | Non-toxic | Non-toxic | Non-toxic | Non-toxic | – | – | – | IC90 (Leishmania donovani [1]; Leishmania donovani, 72 h): 120 µM
2 | c1ccc2cc(CN3CCc4c([nH]c5ccccc45)C3)ccc2c1 | 22.1 | 87.6 | – | – | – | – | Non-toxic | Non-toxic | Non-toxic | Non-toxic | 10.2 | – | – | IC90 (Leishmania donovani [1]; Leishmania donovani, 72 h): 28.1 µM; IC90 (Leishmania donovani [3]; [9]): > 32 µM; IC50 (Leishmania donovani [3]; [10]): 28.3 µM; IC90 (Trypanosoma brucei; Trypanosoma brucei, 72 h): 17.6 µM
3 | CN1CCN(C(=O)c2cc3c4ccccc4n4c(=O)c5ccccc5c(n2)c34)CC1 | – | – | – | – | – | – | – | – | – | – | – | – | – | IC50 (Trypanosoma cruzi): 0.4 µM
4 | c1ccc2c3c([nH]c2c1)CN(Cc1ccncc1)CC3 | 121 | – | inactive | Not Active | – | – | Non-toxic | Non-toxic | Non-toxic | Non-toxic | 26.2 | Not Active | inactive | –
5 | Cn1cc(C(=O)N2CCc3c([nH]c4ccccc34)C2)c2ccccc21 | 52.6 | – | inactive | Not Active | Not Active | inactive | Non-toxic | Non-toxic | Non-toxic | Non-toxic | – | Not Active | inactive | –
6 | NCCCC(N)(C(=O)O)C(F)F (stereo unspecified) [EFLORNITHINE] | – | – | – | – | – | – | – | – | – | – | 28 | – | – | IC90 (Trypanosoma brucei; Trypanosoma brucei, 72 h): 68.2 µM
7 | O=C(c1ccc(-c2cc(C(F)(F)F)ccc2Cl)o1)N1CCc2c([nH]c3ccccc23)C1 | 39.6 | 37.1 | inactive | Not Active | Not Active | inactive | Non-toxic | – | – | – | – | – | – | IC90 (Leishmania donovani [1]; Leishmania donovani, 72 h): 69.1 µM; IC90 (Leishmania donovani [2]; Leishmania donovani, 72 h): 76 µM; IC50 (HepG2 [5]): 25.5 µM
8 | Cc1noc(C)c1CN1CCc2c([nH]c3ccccc23)C1 | – | – | inactive | Not Active | – | – | Non-toxic | Non-toxic | Non-toxic | Non-toxic | 15.9 | Not Active | inactive | IC50 (Leishmania donovani [1]): Not Active; IC90 (Leishmania donovani [1]): inactive; IC90 (Trypanosoma brucei; Trypanosoma brucei, 72 h): 26.3 µM
9 | O=C(N1CCOCC1)N1CCc2c([nH]c3ccccc23)C1 | – | – | inactive | Not Active | Not Active | inactive | – | – | – | – | – | Not Active | inactive | IC50 (Leishmania donovani [1]): Not Active; IC90 (Leishmania donovani [1]): inactive
10 | c1ccc2[nH]c(CN3CCc4c([nH]c5ccccc45)C3)nc2c1 | 118 | – | inactive | Not Active | – | – | Non-toxic | Non-toxic | Non-toxic | Non-toxic | 29.7 | Not Active | inactive | –
11 | O=C(c1ccc2ccccc2n1)N1CCc2c([nH]c3ccccc23)C1 | – | – | inactive | Not Active | Not Active | inactive | – | – | – | – | – | Not Active | inactive | IC50 (Leishmania donovani [1]): Not Active; IC90 (Leishmania donovani [1]): inactive
12 | Clc1ccc(CN2CCc3c([nH]c4ccccc34)C2)s1 | 9.1 | – | inactive | Not Active | – | – | Non-toxic | Non-toxic | Non-toxic | Non-toxic | 8.9 | Not Active | inactive | IC90 (Leishmania donovani [1]; Leishmania donovani, 72 h): 25.6 µM; IC90 (Trypanosoma brucei; Trypanosoma brucei, 72 h): 14.5 µM
13 | Cc1nccc2c1[nH]c1ccccc12 [HARMAN] | 19.2 | 0.27 | – | – | – | – | – | – | – | – | – | – | – | IC50 (Leishmania infantum [6]): 0.27 µM; IC50 (Leishmania infantum [7]): 19.2 µM
14 | c1ccc2nc(CN3CCc4c([nH]c5ccccc45)C3)ccc2c1 | – | – | inactive | Not Active | Not Active | inactive | – | – | – | – | – | Not Active | inactive | IC50 (Leishmania donovani [1]): Not Active; IC90 (Leishmania donovani [1]): inactive
15 | CN1CCN(C(=O)N2CCc3c([nH]c4ccccc34)C2)CC1 | – | – | inactive | Not Active | Not Active | inactive | – | – | – | – | – | Not Active | inactive | IC50 (Leishmania donovani [1]): Not Active; IC90 (Leishmania donovani [1]): inactive
16 | O=C(c1cnccn1)N1CCc2c([nH]c3ccccc23)C1 | – | – | inactive | Not Active | Not Active | inactive | – | – | – | – | – | Not Active | inactive | IC50 (Leishmania donovani [1]): Not Active; IC90 (Leishmania donovani [1]): inactive
17 | N=C(N)c1ccc(OCCCCCOc2ccc(C(=N)N)cc2)cc1 [PENTAMIDINE] | 4.8 | > 29.4 | – | – | – | – | – | – | – | – | 0.0041 | – | – | IC90 (Leishmania donovani [1]; Leishmania donovani, 72 h): 6.1 µM; IC90 (Leishmania donovani [2]; Leishmania donovani, 72 h): > 29.4 µM; IC90 (Leishmania donovani [3]; [9]): 3.1 µM; IC50 (Leishmania donovani [3]; [10]): 2 µM; IC90 (Trypanosoma brucei; Trypanosoma brucei, 72 h): 0.007 µM
18 | Cc1ccsc1C(=O)N1CCc2c([nH]c3ccccc23)C1 | 26 | – | inactive | Not Active | Not Active | inactive | Non-toxic | Non-toxic | Non-toxic | Non-toxic | – | Not Active | inactive | –
19 | O=C(c1ccc(Br)o1)N1CCc2c([nH]c3ccccc23)C1 | 27.5 | 96.5 | inactive | Not Active | – | – | Non-toxic | Non-toxic | Non-toxic | Non-toxic | 13.7 | – | – | IC90 (Leishmania donovani [2]; Leishmania donovani, 72 h): 122 µM; IC90 (Trypanosoma brucei; Trypanosoma brucei, 72 h): 23.9 µM
20 | c1ccc2c(CN3CCc4c([nH]c5ccccc45)C3)c3ccccc3cc2c1 | 16 | 80.4 | inactive | Not Active | – | – | Non-toxic | Non-toxic | Non-toxic | Non-toxic | 11 | – | – | IC90 (Leishmania donovani [1]; Leishmania donovani, 72 h): 76 µM; IC90 (Leishmania donovani [2]; Leishmania donovani, 72 h): 104 µM; IC90 (Trypanosoma brucei; Trypanosoma brucei, 72 h): 18.8 µM
21 | O=C1NCCN1C(=O)N1CCc2c([nH]c3ccccc23)C1 | – | – | inactive | Not Active | Not Active | inactive | – | – | – | – | – | Not Active | inactive | IC50 (Leishmania donovani [1]): Not Active; IC90 (Leishmania donovani [1]): inactive
22 | O=[N+]([O-])c1ccc(CN2CCc3c([nH]c4ccccc34)C2)o1 | 33.8 | 117 | inactive | Not Active | – | – | Non-toxic | Non-toxic | Non-toxic | Non-toxic | 1 | – | – | IC90 (Trypanosoma brucei; Trypanosoma brucei, 72 h): 28.1 µM
23 | O=C(c1ccc(-c2ccc(-c3ccccc3)cc2)o1)N1CCc2c([nH]c3ccccc23)C1 | 75.3 | 83.4 | inactive | Not Active | Not Active | inactive | Non-toxic | Non-toxic | Non-toxic | Non-toxic | – | – | – | IC90 (Leishmania donovani [1]; Leishmania donovani, 72 h): 111 µM; IC90 (Leishmania donovani [2]; Leishmania donovani, 72 h): 110 µM
24 | COc1ccc2c3c([nH]c2c1)C(C)=NCC3 [HARMALINE] | 117 | 1.16 | – | – | – | – | – | – | – | – | – | – | – | IC50 (Leishmania infantum [6]): 1.16 µM; IC50 (Leishmania infantum [7]): 117 µM
25 | C[C@@H]1[C@H](O)[C@@H](C)/C=C/C=C/C=C/C=C/C=C/C=C/C=C/[C@H](O[C@@H]2O[C@H](C)[C@@H](O)[C@H](N)[C@@H]2O)C[C@@H]2O[C@](O)(C[C@@H](O)C[C@@H](O)[C@H](O)CC[C@@H](O)C[C@@H](O)CC(=O)O[C@H]1C)C[C@H](O)[C@H]2C(=O)O [AMPHOTERICIN B] | 0.3 | 0.3 | – | – | Not Active | inactive | – | – | – | – | – | – | – | IC90 (Leishmania donovani [1]; Leishmania donovani, 72 h): 0.4 µM; IC90 (Leishmania donovani [2]; Leishmania donovani, 72 h): 0.4 µM; IC90 (Leishmania donovani [3]; [9]): 0.5 µM
26 | O=C(c1ccc(-c2cccc([N+](=O)[O-])c2)o1)N1CCc2c([nH]c3ccccc23)C1 | 66.7 | – | inactive | Not Active | Not Active | inactive | Non-toxic | Non-toxic | Non-toxic | Non-toxic | – | Not Active | inactive | –
27 | Cc1ncsc1C(=O)N1CCc2c([nH]c3ccccc23)C1 | – | – | inactive | Not Active | Not Active | inactive | – | – | – | – | – | Not Active | inactive | IC50 (Leishmania donovani [1]): Not Active; IC90 (Leishmania donovani [1]): inactive
